Source: patent publication US12410160B2 (Gilead Sciences, Inc., priority 2021, dated 2025)
Like-named read-outs stand apart in the source and are kept apart here.

How the values were obtained:
human KHK-C = human KHK-C (Homo sapiens (Human), UniProt P50053); assay: KHK Biochemical Assay (IC50), ADP-Glo, KHK-C; conditions: average of at least two separate assays
Summary of the method: (§1)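 Luminescent ADP-Glo read-out of ADP made by His-tagged KHK (BL21 (DE3) expression, Ni-NTA). Enzyme and compound sat together 30 min before ATP/fructose addition, then reacted 4 h at RT in Hepes pH 7.4 buffer with KCl, MgCl2, Triton-X. Quench 1 h, detection 1 h.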

human KHK-A = human KHK-A (Homo sapiens (Human), UniProt P50053); assay: KHK Biochemical Assay (IC50), ADP-Glo, KHK-A; conditions: average of at least two separate assays
Chain of human KHK-A (P50053 other isoform, or with tags, fused parts or gaps): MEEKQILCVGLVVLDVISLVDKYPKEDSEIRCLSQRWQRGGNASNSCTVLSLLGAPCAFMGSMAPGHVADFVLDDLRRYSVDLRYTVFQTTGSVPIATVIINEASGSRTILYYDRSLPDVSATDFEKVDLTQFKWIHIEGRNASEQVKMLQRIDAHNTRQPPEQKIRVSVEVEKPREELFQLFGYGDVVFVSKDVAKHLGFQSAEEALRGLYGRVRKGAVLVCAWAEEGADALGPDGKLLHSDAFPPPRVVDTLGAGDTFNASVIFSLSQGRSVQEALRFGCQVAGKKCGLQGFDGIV
Summary of the method: as §1

HepG2 cells = assay: F1P Cell-Based Assay (EC50), 13C6-fructose-1-phosphate in HepG2 cells (cell culture medium or 50% human plasma)
human OATP1B1 = human OATP1B1 (Homo sapiens (Human), UniProt Q9Y6L6); assay: In Vitro Inhibition Assessment with Human OATP1B1 Transporter; format: in vitro ADME; conditions: HEK293-OATP1B1 cells, probe substrate pravastatin
Chain of human OATP1B1 (Q9Y6L6 whole entry): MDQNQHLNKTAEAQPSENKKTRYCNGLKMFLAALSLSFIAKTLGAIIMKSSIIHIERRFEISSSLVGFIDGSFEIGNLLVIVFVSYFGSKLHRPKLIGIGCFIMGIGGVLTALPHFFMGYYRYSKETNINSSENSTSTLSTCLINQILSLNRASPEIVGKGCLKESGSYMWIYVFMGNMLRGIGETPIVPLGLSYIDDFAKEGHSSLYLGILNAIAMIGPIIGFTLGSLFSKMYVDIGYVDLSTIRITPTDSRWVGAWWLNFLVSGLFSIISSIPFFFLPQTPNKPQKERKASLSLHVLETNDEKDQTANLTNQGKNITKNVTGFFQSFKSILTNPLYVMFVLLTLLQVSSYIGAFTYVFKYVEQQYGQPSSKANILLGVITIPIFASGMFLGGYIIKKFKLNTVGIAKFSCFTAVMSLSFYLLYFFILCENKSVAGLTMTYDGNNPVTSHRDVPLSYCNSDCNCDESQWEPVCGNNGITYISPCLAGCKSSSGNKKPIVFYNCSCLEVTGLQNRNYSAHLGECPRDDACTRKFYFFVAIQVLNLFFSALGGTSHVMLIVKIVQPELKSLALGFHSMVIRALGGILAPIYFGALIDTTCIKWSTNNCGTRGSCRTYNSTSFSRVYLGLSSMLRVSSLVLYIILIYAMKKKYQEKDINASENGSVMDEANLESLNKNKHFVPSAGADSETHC
Procedure: In Vitro Inhibition Assessment with Human OATP1B1 and OATP1B3 Transporters Assay Protocol
The purpose of this assay was to assess the inhibition potential of test article (TA) toward human OATP1B1 and OATP1B3 transporters in vitro using cell lines transfected with the individual transporters. The assays used clinically relevant probe substrate pravastatin and a known positive control inhibitor rifampicin. HEK293 mock, HEK293-OATP1B1, and HEK293-OATP1B3 transfected cells were seeded onto CellCoat Poly-D-Lysine coated 96 well black cell culture plates with clear bottoms (Greiner bio-one, Cat. #655946) at a density of 70,000 cells/well and cultured to confluency overnight. Seeding media used was Dulbecco's Modification of Eagle's Medium (DMEM—with GlutaMAX high glucose; Gibco, Cat #: 10569-010) supplemented with 10% fetal bovine serum, 0.1 mM non-essential amino acids, 100 U/mL penicillin, and 100 μg/mL streptomycin. On assay day, media were removed from the assay plates and cells were washed with Hanks' Balanced Salt Solution (HBSS Buffer) (Corning, Cat. #21-023-CV). All TAs and reference inhibitor were serially diluted in DMSO to create spiking solutions at concentrations of 250-fold of final assay concentrations (final DMSO content 0.4%). Cells were preincubated with HBSS buffer containing test compounds for 15 minutes. After the removal of HBSS buffer, dose solution containing TA or reference inhibitor and probe substrate were added to the HEK293-OATP1B1, HEK-293-OATP1B3 and its associated mock cell plate, respectively. The co-incubation period of TAs with the corresponding probe substrate for all plates was 5 minutes. An aliquot of the dose solution was removed from the HEK293 mock cell plates and analysed for dose recovery. Cells were then washed three times with ice cold HBSS buffer and then immediately extracted with methanol:water (70:30 v:v) containing internal standard labetolol (30 nM). The supernatants were evaporated to dryness on injection plates and reconstituted in 80% water containing 20% acetonitrile and 0.1% formic acid for analysis by liquid chromatography with tandem mass spectrometry (LC-MS-MS).
Fractional transport activities were calculated from the equation: Activity %=(A−B)/(C−D)×100
• A: translocated amount of substrate in the presence of TA on transfected cells • B: translocated amount of substrate in the presence of TA on Mock cells • C: translocated amount of substrate in the presence of solvent on transfected cells • D: translocated amount of substrate in the presence of solvent on Mock cells
GraphPad Prism 7.0 (GraphPad Software Inc., San Diego, CA) was used for curve fitting and determination of reaction parameters. In uptake transporter inhibition assays, the IC50 (μM) was calculated, where applicable. IC50 was defined as the concentration of TA required to inhibit maximal activity by 50%.

[1] = target: KHK-C expressed in NRK-52E cells (Homo sapiens (Human), UniProt P50053); assay: KHK-C Cell-based Assay (EC50), NRK CTG, fructose-mediated ATP-depletion
Chain of KHK-C expressed in NRK-52E cells (P50053 whole entry): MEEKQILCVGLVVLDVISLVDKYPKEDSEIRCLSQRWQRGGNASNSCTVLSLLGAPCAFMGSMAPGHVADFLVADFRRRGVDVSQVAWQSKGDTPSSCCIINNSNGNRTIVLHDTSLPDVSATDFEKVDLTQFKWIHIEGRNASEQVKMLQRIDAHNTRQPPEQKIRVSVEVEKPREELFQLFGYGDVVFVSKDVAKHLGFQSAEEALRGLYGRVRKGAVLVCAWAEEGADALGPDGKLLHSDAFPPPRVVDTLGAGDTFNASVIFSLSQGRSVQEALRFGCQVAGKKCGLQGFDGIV
Procedure: Compounds were tested in a high-throughput 384-well assay format for their ability to attenuate fructose-mediated ATP-depletion in Normal Rat Kidney epithelial cells (NRK-52E) using the Cell-Titer Glo (CTG) assay, which measures cellular ATP levels based on luminescence signal by using the luciferase-luciferin system. Compounds were serially diluted (1:3) in DMSO.
The plates were incubated at 37° C., 5% CO2 for one day. Cells were then transduced on day 2 with 200 MOI of Adenovirus (VQAd KHKC C-(K)-DYK ViraQuest Inc.) using the same medium and method as day-1 to induce KHK-C expression in the cells. Cells were incubated at 37° C., 5% CO2 for one day. On day-3, the medium was changed to DMEM medium (Corning, Catalog #10-014-CM) with 0.5% FBS and Penicillin-Streptomycin after washing the cells twice with sterile PBS on the BioTEK EL406 washer and dispenser. Test compounds were then diluted 200-fold into the assay plates using the BioMek FX and were incubated for 1 hour at 37° C., 5% CO2. 25 mM (final concentration) of fructose was then dispensed into the plates using the BioTEK EL406 dispenser and the plates were incubated at 37° C., 5% CO2 for 48 hours before addition of CTG reagent and measurement of luminescence signal.

[2] = HepG2 cells, 50% human plasma, read-out: F1P 50% HP EC50
[3] = read-out: F1P 10% FBS EC50, HepG2 cells, cell culture medium (10% FBS)
[4] = Homo sapiens, HepG2, HepG2 cells, 50% human plasma, read-out: F1P 50% HP EC50
[5] = Homo sapiens, HepG2, read-out: F1P 10% FBS EC50, HepG2 cells, cell culture medium (10% FBS)

Chain of human KHK-C (P50053 whole entry): as above

| SMILES | IC50 (human KHK-C) [nM] | IC50 (human OATP1B1) [nM] | EC50 (HepG2 cells; [4]) [nM] | EC50 (HepG2 cells; [5]) [nM] | EC50 [1] [nM] | also measured |
| --- | --- | --- | --- | --- | --- | --- |
| COc1cc(-c2nc(N3C[C@@H](O)[C@@H]3C)nc3c2CCC3(F)F)cc2c1[C@@H](NS(C)(=O)=O)CO2 (single isomer, unassigned) [Example 479] | 0.7 | 994 |  |  |  | IC50 (human KHK-A): 7.3 nM; EC50 (HepG2 cells; [2]): 28.3 nM; EC50 (HepG2 cells; [3]): 11 nM |
| C[C@H]1[C@H](O)CN1c1nc(-c2ccc([C@]3(N)CCOC3)cc2)c2c(n1)C(F)(F)CC2 (single isomer, unassigned) [Example 518] | 1.1 | 27100 | 3 | 3.7 |  | IC50 (human KHK-A): 2.3 nM |
| C[C@H]1CCN1c1nc2c(c(-c3cccc(CCC(=O)O)c3)n1)CCC2 [Example 4, (S)-3-(3-(2-(2-methylazetidin-1-yl)-6,7-dihydro-5H-cyclopenta[d]pyrimidin-4-yl)phenyl)propanoic acid] |  | 928 |  |  | 310 | IC50 (human KHK-C; ADP-Glo): 46.1 nM; IC50 (human KHK-A; ADP-Glo): 41.4 nM |
| C[C@H]1[C@H](O)CN1c1nc(-c2ccc(C(N)=O)c(OC(F)F)c2)c2c(n1)C(F)(F)CC2 [Example 182, 4-(7,7-difluoro-2-((2S,3R)-3-hydroxy-2-methylazetidin-1-yl)-6,7-dihydro-5H-cyclopenta[d]pyrimidin-4-yl)-2-(difluoromethoxy)benzamide] |  | 2840 |  |  | 156 | IC50 (human KHK-C; ADP-Glo): 10.2 nM |
| C[C@H]1[C@H](O)CN1c1nc(-c2ccc3c(c2)C(=O)N(C)C3)c2c(n1)C(F)(F)CC2 [Example 236, 6-(7,7-difluoro-2-((2S,3R)-3-hydroxy-2-methylazetidin-1-yl)-6,7-dihydro-5H-cyclopenta[d]pyrimidin-4-yl)-2-methylisoindolin-1-one] |  | 1390 |  |  | 31.3 |  |
| C[C@H]1CCN1c1nc2c(c(-c3cc4c(N)nccc4s3)n1)CCC2 [Example 446, 2-[2-[(2S)-2-methylazetidin-1-yl]-6,7-dihydro-5H-cyclopenta[d]pyrimidin-4-yl]thieno[3,2-c]pyridin-4-amine] | 3.4 | 1810 |  |  | 5 |  |
| C[C@H]1[C@H](O)CN1c1nc2c(c(-c3cc4cc[nH]c(=O)c4s3)n1)CCC2 [Example 450, 2-[2-[(2S,3R)-3-hydroxy-2-methyl-azetidin-1-yl]-6,7-dihydro-5H-cyclopenta[d]pyrimidin-4-yl]-6H-thieno[2,3-c]pyridin-7-one] | 9.3 | 992 |  |  | 298 |  |
| C[C@H]1[C@H](O)CN1c1nc(-c2ccc3c(c2)CC[C@@H]3NS(C)(=O)=O)c2c(n1)C(F)(F)CC2 [Example 472, N—((S)-5-(7,7-difluoro-2-((2S,3R)-3-hydroxy-2-methylazetidin-1-yl)-6,7-dihydro-5H-cyclopenta[d]pyrimidin-4-yl)-2,3-dihydro-1H-inden-1-yl)methanesulfonamide] | 0.9 | 6220 | 39.4 | 13.3 |  | IC50 (human KHK-A): 12.7 nM |
| C[C@H]1[C@H](O)CN1c1nc(-c2ccc3c(c2)COC[C@@H]3NS(C)(=O)=O)c2c(n1)C(F)(F)CC2 [Example 487, N—((R)-7-(7,7-difluoro-2-((2S,3R)-3-hydroxy-2-methylazetidin-1-yl)-6,7-dihydro-5H-cyclopenta[d]pyrimidin-4-yl)isochroman-4-yl)methanesulfonamide] | 1.6 | 9770 | 72.4 | 11.9 |  | IC50 (human KHK-A): 14 nM |
| C[C@H]1[C@H](O)CN1c1nc(-c2ccc3c(c2)S(=O)(=O)NC3)c2c(n1)C(F)(F)CC2 [Example 598] | 2.4 | 3140 |  |  | 15.7 |  |
| C[C@H]1[C@H](O)CN1c1nc(-c2cnc3c(c2)OCCNC3=O)c2c(n1)C(F)(F)CC2 [Example 599] | 20.3 | 4380 |  |  | 4900 |  |
| C[C@H]1[C@H](O)CN1c1nc(-c2ccc3c(c2)[C@@H](NS(C)(=O)=O)CO3)c2c(n1)C(F)(F)CC2 [Example 614] | 1.5 | 7350 |  |  |  | EC50 (HepG2 cells; [2]): 16 nM; EC50 (HepG2 cells; [3]): 9.9 nM |
| C[C@H]1[C@H](O)CN1c1nc(-c2cc3cc[nH]c(=O)c3s2)c2c(n1)C(F)(F)CC2 [Example 643, 2-[7,7-difluoro-2-[(2S,3R)-3-hydroxy-2-methyl-azetidin-1-yl]-5,6-dihydrocyclopenta[d]pyrimidin-4-yl]-6H-thieno[2,3-c]pyridin-7-one] | 2.6 | 798 |  |  | 70.8 |  |
| C[C@H]1[C@H](O)CN1c1nc(-c2ccc3c(c2)S(=N)(=O)CC3)c2c(n1)C(F)(F)CC2 (stereo partly drawn) [Example 666, (2S,3R)-1-[7,7-difluoro-4-(1-imino-1-oxo-2,3-dihydrobenzothiophen-6-yl)-5,6-dihydrocyclopenta[d]pyrimidin-2-yl]-2-methyl-azetidin-3-431] | 3 | 23400 | 14.8 | 16.7 |  |  |
| C[C@H]1[C@H](O)CN1c1nc(-c2ccc(S(C)(=N)=O)cc2)c2c(n1)C(F)(F)CC2 (stereo partly drawn) [Example 715, (4-(7,7-difluoro-2-((2S,3R)-3-hydroxy-2-methylazetidin-1-yl)-6,7-dihydro-5H-cyclopenta[d]pyrimidin-4-yl)phenyl)(imino)(methyl)-λ^6-sulfanone] | 35.2 | 30500 |  |  | 258 |  |
| C[C@H]1[C@H](O)CN1c1nc(-c2ccc3c(c2)S(=N)(=O)CCNC3)c2c(n1)C(F)(F)CC2 (stereo partly drawn) [Example 725] | 0.9 | > 40000 |  |  |  | IC50 (human KHK-A): 2.2 nM; EC50 (HepG2 cells; Homo sapiens, HepG2, read-out: F1P 10% FBS EC50): 37.7 nM; EC50 (HepG2 cells; Homo sapiens, HepG2, read-out: F1P 50% HP EC50): 23.5 nM |
| C[C@H]1[C@H](O)CN1c1nc(-c2ccc(C3(O)CS(=O)(=O)C3)cc2)c2c(n1)C(F)(F)CC2 [Example 735] | 6.5 | 2870 |  |  | 52.1 |  |
| C[C@H]1[C@H](O)CN1c1nc(-c2cc3c(c(C(N)=O)c2)CCO3)c2c(n1)C(F)(F)CC2 [Example 756, 6-[7,7-difluoro-2-[(2S,3R)-3-hydroxy-2-methyl-azetidin-1-yl]-5,6-dihydrocyclopenta[d]pyrimidin-4-yl]-2,3-dihydrobenzofuran-4-carboxamide] | 7 | 1750 |  |  | 52.2 |  |
| C[C@H]1[C@H](F)CN1c1nc(-c2ccc3c(c2)S(=O)(=O)CCNC3)c2c(n1)C(F)(F)CC2 [Example 781] | 2.9 | 326 | 20.1 | 7.1 |  |  |
| CS(=O)(=O)NC1COc2cc(-c3nc(N4CC[C@@H]4C#N)nc4c3CCC4(F)F)ccc21 (stereo partly drawn) [Example 804, N-[6-[2-[(2R)-2-cyanoazetidin-1-yl]-7,7-difluoro-5,6-dihydrocyclopenta[d]pyrimidin-4-yl]-2,3-dihydrobenzofuran-3-yl]methanesulfonamide] |  | 1200 | 41.8 | 22.5 |  | IC50 (human KHK-C; ADP-Glo): 3.5 nM |
| COC(=O)NC1COc2cc(-c3nc(N4C[C@@H](O)[C@@H]4C)nc4c3CCC4(F)F)ccc21 (stereo partly drawn) [Example 806, methyl N-[6-[7,7-difluoro-2-[(2S,3R)-3-hydroxy-2-methyl-azetidin-1-yl]-5,6-dihydrocyclopenta[d]pyrimidin-4-yl]-2,3-dihydrobenzofuran-3-yl]carbamate] |  | 660 | 113 | 61.6 |  | IC50 (human KHK-C; ADP-Glo): 1.6 nM |
